The values that follow come from patent US6822146B2, “Sulfonylurea-tolerant sunflower line M7” (priority 2000, dated 2004).

For one data set, the system named is M5M12. As to the kind of experiment: Test B greenhouse phytotoxicity, M5M12. The format is in vivo, sunflower. As to conditions: in vivo. The essentials: (§1)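 Formulated ALS-inhibiting herbicides sprayed post-emergence at the 4-leaf stage on homozygous mutant sunflower inbreds (M5 maintainers and BC4 male-sterile back-crosses) in the greenhouse, at rates commonly used in registered crops. Two replicates; crop injury rated as % phytotoxicity, 0% meaning no injury.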

The test system of data set [1] is homozygous progeny of the three mutant sources. The format is in vivo, sunflower. The conditions noted are these: Test B application rates, post-emergence. The essentials:
as §1

The test system of another data set is H89A × M4M11. The format is in vivo, sunflower. The conditions noted are these: variety G. The text has this:
(§2) To generate the hybrids C, D and E, the fourth generation self-pollinated maintainer mutant lines M4M12, M4M11 and M4M7 were chemically sterilized by applying at the bud “star” flower stage a small amount of gibberellic acid solution to sterilize the pollen according to the general method described in Sunflower Science Technology, J. F. Carter ed. (Number 19 in the series “Agronomy”) pp. 339-386. This treatment enables maintainer plants to behave as CMS inbred lines and allows the production of heterozygous resistant hybrids, with the herbicide resistant source coming from the female side. Such crosses allowed evaluating the sexual effect of the mutation source when introduced on the female side of a cross as described in crosses C, D and E versus the male side of a cross as described in crosses F, G and H. Labels I, J and K identify third generation CMS mutant lines crossed with fourth generation maintainer lines to maintain the highly heritable mutant trait in a male sterile homozygous resistant environment. One skilled in sunflower breeding art understands the meaning of such crosses.
(§3) A rating of 0% phytotoxicity means no crop injury.

The test system of data set [2] is Inbred line control: H89A. The class given is in vivo, sunflower. The conditions noted are these: variety B.
Text: as §2, §3

The subject of another data set is H89A × M4M7. The class given is in vivo, sunflower. As to conditions: variety H.
Text: as §2, §3

Data set [3] deals with Hybrid control: H89A × RHA274. The format is in vivo, sunflower. As to conditions: variety A.
Text: as §2, §3

Another data set relates to H89A × M4M12. The format is in vivo, sunflower. As to conditions: variety F.
Text: as §2, §3

The subject of the next data set is BC4-M5M7. The data set is described as follows: Test B greenhouse phytotoxicity, BC4-M5M7. The class given is in vivo, sunflower. As to conditions: in vivo. The essentials:
as §1

Another data set concerns BC4-M5M11. The data set is described as follows: Test B greenhouse phytotoxicity, BC4-M5M11. The format is in vivo, sunflower. The conditions noted are these: in vivo. The essentials: as §1
The test system of data set [4] is acetolactate synthase (ALS) from M2E24. As to the kind of experiment: ALS activity remaining, M2E24 extract. The format is biochemical, sunflower. The conditions noted are these: mutant line selected with rimsulfuron, in the presence of rimsulfuron.
The subject of another data set is 'M11'. As to the kind of experiment: Tolerance of M11 to rimsulfuron. The conditions noted are these: in vivo.
The subject of a further data set is BC4-M5M12. As to the kind of experiment: Test B greenhouse phytotoxicity, BC4-M5M12. The format is in vivo, sunflower. As to conditions: in vivo. The essentials: as §1
Data set [5] relates to Homozygous resistant inbred lines, BC3-M4M12 (I), BC3-M4M11 (J) and BC3-M4M7 (K). As to the kind of experiment: Test A summary, homozygous resistant inbred lines. As to conditions: in vivo. How it is done: In a small field trial, the sunflower varieties described in Table 4 were sprayed post-emergence with a variety of sulfonylurea herbicide treatments.
Broadcast post-emergence applications of formulated sulfonylurea herbicides were performed at the 6-leaf development stage using four randomly distributed replications. Application rates were chosen to match the usual use rates of these herbicides in the crops they are registered in Europe. All herbicides except for metsulfuron-methyl were sprayed in combination with Citowet® non-ionic ethoxylated alcohol at 0.25% volume of formulated product per volume of water applied per hectare.
The evaluation of the maximum (i.e. peak) injury to sunflower varieties by sulfonylurea herbicides was measured by visual ratings, which are listed in Table 5. A rating of 0% phytotoxicity means no crop injury. […] A rating of 100% means the complete destruction of all plants.

A further data set deals with M5M7. The data set is described as follows: Test B greenhouse phytotoxicity, M5M7. The format is in vivo, sunflower. As to conditions: in vivo. The gist of the method: as §1
The test system of another data set is M5M11. The data set is described as follows: Test B greenhouse phytotoxicity, M5M11. The conditions noted are these: in vivo. The format is in vivo, sunflower. The essentials:
as §1

Data set [6] deals with H89A × RHA274 (sulfonylurea-susceptible hybrid). The data set is described as follows: Test G control of volunteer sunflower, H89A × RHA274. The class given is in vivo. The conditions noted are these: rated 4 weeks after application, scale 0-100.
In another data set the test system is BC2-M3M11. As to the kind of experiment: Test G control of volunteer sunflower, BC2-M3M11. The format is in vivo. The conditions noted are these: rated 4 weeks after application, scale 0-100.
A further data set relates to BC2-M3M12. The data set is described as follows: Test G control of volunteer sunflower, BC2-M3M12. The format is in vivo. The conditions noted are these: rated 4 weeks after application, scale 0-100.
For data set [7], the system named is ALS enzymes of the mutant lines selected with thifensulfuron-methyl. The data set is described as follows: ALS activity of mutant lines relative to wild-type H89B. The class given is biochemical, sunflower. As to conditions: in the presence of thifensulfuron-methyl.
Data set [8] concerns mutants originating from M11 and M12. The conditions noted are these: tribenuron-methyl up to 60 g a.i./ha; others at Test G rates. An excerpt: This test involved sulfonylurea-resistant sunflower progeny BC2-M3M11 and BC2-M3M12, derived from M11 and M12, respectively. Also, a sulfonylurea-susceptible hybrid, H89A×RHA274, was included for comparison. Plants were sprayed with formulated herbicides at the 4-leaf stage. The efficacy of the treatments on the sunflowers was visually rated 4 weeks after application, using a scale where 0 means no control of the sunflowers, 85 means sufficient efficacy level to stop plants from flowering and propagating, and 100 means a complete destruction of the mutants.
Weed control in sugar beet requires 2-3 herbicide applications per season to efficiently control weeds in this slow growing crop.

Like-named read-outs stand apart in the source and are kept apart here.

For the compound `CCS(=O)(=O)c1cccnc1S(=O)(=O)NC(=O)Nc1nc(OC)cc(OC)n1` [Rimsulfuron, rimsulfuron], the “Maximum Phytotoxicity” value was found to be 55% in the data set with M5M12; 98% in the data set with H89A × M4M11 (15 g a.i./ha post-emergence); 100% in the data set on H89A × M4M11 (30 g a.i./ha post-emergence); 100% in data set [2] (15 g a.i./ha post-emergence); 100% in data set [2] (30 g a.i./ha post-emergence); 96% in the data set with H89A × M4M7 (15 g a.i./ha post-emergence). Further, the “Maximum Phytotoxicity” value with H89A × M4M7 (30 g a.i./ha post-emergence) is reported as 100%; in [3] (15 g a.i./ha post-emergence), 100%; in data set [3] (30 g a.i./ha post-emergence), 100%; with H89A × M4M12 (15 g a.i./ha post-emergence), 98%; in the data set on H89A × M4M12 (30 g a.i./ha post-emergence) it was 100%; with BC4-M5M7, 45%. The “Maximum Phytotoxicity” value with BC4-M5M11 amounted to 47.5%; with BC4-M5M12 it was 65%; in the data set with M5M7, 52.5%; in the data set on M5M11, 65%. The “tolerance of the mutants” value in data set [1] is given as “somewhat sensitive”. The “ALS activity retained relative to wild-type ALS from H89B” value in data set [4] is given as 4-6 times. Also, the “tolerance of M11” value in the data set on 'M11' is reported as “not tolerant”. Further, in [5], the “tolerance of homozygous resistant inbred lines I, J, K” value is “as susceptible as the standards”.
In the case of `COC(=O)c1sccc1S(=O)(=O)NC(=O)Nc1nc(C)nc(OC)n1` [Thifensulfuron-methyl, thifensulfuron-methyl], the “Efficacy on H89A × RHA274” value is 100 in [6] (10 g a.i./ha, 4-leaf stage); 100 in [6] (20 g a.i./ha); 100 in data set [6] (40 g a.i./ha); 100 in data set [6] (60 g a.i./ha). The “Efficacy on BC2-M3M11” value in the data set with BC2-M3M11 (10 g a.i./ha) is on record as 2; in the data set with BC2-M3M11 (20 g a.i./ha), 17; with BC2-M3M11 (40 g a.i./ha), 50; in the data set on BC2-M3M11 (60 g a.i./ha), 74. Also, the “Maximum Phytotoxicity” value worked out at 81% in the data set on H89A × M4M11 (35 g a.i./ha post-emergence); 90% in the data set with H89A × M4M11 (70 g a.i./ha post-emergence); 100% in data set [2] (35 g a.i./ha post-emergence); 100% in [2] (70 g a.i./ha post-emergence); 80% in the data set on H89A × M4M7 (35 g a.i./ha post-emergence); 90% in the data set with H89A × M4M7 (70 g a.i./ha post-emergence). Also, the “Maximum Phytotoxicity” value is 100% in [3] (35 g a.i./ha post-emergence), 99% in data set [3] (70 g a.i./ha post-emergence), 78% in the data set with H89A × M4M12 (35 g a.i./ha post-emergence) and 89% with H89A × M4M12 (70 g a.i./ha post-emergence). Moreover, the “Efficacy on BC2-M3M12” value in the data set on BC2-M3M12 (10 g a.i./ha) came to 10; in the data set on BC2-M3M12 (20 g a.i./ha) it was 16; in the data set on BC2-M3M12 (40 g a.i./ha), 32; in the data set on BC2-M3M12 (60 g a.i./ha) it was 58. Further, in data set [7], the “ALS activity retained relative to wild-type ALS from H89B” value is reported as 2-6 times. Further, the “resistance/tolerance of the mutants” value in data set [8] is “to a lesser extent than with tribenuron-methyl”. Further, the “tolerance of homozygous resistant inbred lines I, J, K” value in data set [5] is on record as “less susceptible than the standards”. Besides, the “tolerance of homozygous resistant lines compared with heterozygous hybrids” value in data set [5] was “the homozygous resistant lines were more tolerant”.
